According to US11959083B2, “Immunosuppression-reverting oligonucleotides inhibiting the expression of CD39” (Secarna Pharmaceuticals GmbH & Co. KG, priority 2016, dated 2024):
l = locked nucleic acid (LNA); d = 2'-deoxy (DNA)

Experiments:
Type in all cases: cell-based, human
[1] = tested on: hCD39 mRNA; test: hCD39 mRNA knockdown efficacy screen in HDLM-2 cells (single dose, gymnotic delivery, QuantiGene Singleplex); parameters: key to Relative hCD39 mRNA expression (compared to non-treated cells): *: values are below detection limit; settings: 10 μM, 3 days; for Mean hCD39 mRNA expression normalized to HPRT1 relative to untreated control = 1: first screening round; for Relative hCD39 mRNA expression (compared to non-treated cells): second screening round, normalized to HPRT1; for Residual hCD39 mRNA expression relative to untreated cells (set as 1): third screening round
Summary of the method: (§1)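 Antisense oligonucleotides given once at 10 μM without transfection reagent (gymnotic) to HDLM-2 or A-172 cells for 3 days. hCD39 mRNA measured by QuantiGene Singleplex, normalized to HPRT1 and expressed relative to untreated cells; triplicate means.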

[2] = tested on: hCD39 mRNA; test: IC50 determination / concentration-dependent hCD39 mRNA knockdown in HDLM-2 cells; settings: for mRNA inhibition: HDLM-2, 3 days; for IC50: HDLM-2 cells, hCD39 mRNA, 3 days
Protocol: HDLM-2 cells were treated for 3 days with the indicated concentration of the respective antisense oligonucleotide. Residual hCD39 expression is depicted compared to untreated control cells. hCD39 mRNA expression values were normalized to expression of the housekeeping gene HPRT1.
The antisense oligonucleotide A04040H (SEQ ID No. 3) that had shown potent activity in the first and second screening round was used as reference. HDLM-2 cells treated for 3 days with the indicated concentrations of the respective antisense oligonucleotide. hCD39 mRNA expression values were normalized to expression of the housekeeping gene HPRT1. Residual hCD39 mRNA expression relative to untreated cells (set as 100) is depicted. Depicted is the mean of triplicate wells+/−SD.
In a second experiment the concentration-dependency of effects and the IC50 values of hCD39 antisense oligonucleotides A04010H (SEQ ID No.14), A04016H (SEQ ID No.20), A04017H (SEQ ID No.21), A04020H (SEQ ID No. 24) and A04026H (SEQ ID No.30) were tested. […] HDLM-2 cells were treated with titrated amounts of the respective antisense oligonucleotide (concentrations: 10 μM, 3.3 μM, 1.1 μM, 370 nM, 120 nM, 41 nM, 14 nM, 4.5 nM). hCD39 mRNA expression was analyzed after three days of treatment. FIG. 5 and Table 9 depicts the concentration-dependent reduction of hCD39 mRNA expression by the selected hCD39 antisense oligonucleotides.
The hCD39 antisense oligonucleotides A04051H (SEQ ID No.88), A04052H (SEQ ID No.89), A04053H ([…]), A04056H (SEQ ID No.92), A04059H (SEQ ID No.94), A04060H (SEQ ID No.95), and A04061H (SEQ ID No.96) had shown potent single-dose activity in both HDLM-2 and A-172 cells. […] The antisense oligonucleotide A04040H that had shown potent activity in the first screening round was used as reference. hCD39 mRNA expression was analyzed after 3 days of treatment. FIG. 7 depicts the concentration-dependent reduction of hCD39 expression by hCD39 antisense oligonucleotides.

[3] = tested on: hCD39 mRNA; test: hCD39 mRNA knockdown efficacy screen in A-172 cells (single dose, gymnotic delivery, QuantiGene Singleplex); settings: 10 μM, 3 days; for Mean hCD39 mRNA expression (relative to untreated cells set as 1): first screening round; for Mean hCD39 mRNA expression (relative to untreated cells set as 1) / Relative hCD39 mRNA expression (compared to non-treated cells): normalized to HPRT1; for Relative hCD39 mRNA expression (compared to non-treated cells): second screening round; for Residual hCD39 mRNA expression relative to untreated cells (set as 1): third screening round
Summary of the method: as §1

[4] = second screening round (Table 9)
[5] = third screening round (Table 12)
[6] = first screening round (Table 8)

Row | Substance | Mean hCD39 mRNA expression normalized to HPRT1 relative to untreated control = 1 [1] | Relative hCD39 mRNA expression (compared to non-treated cells) [1] | mRNA inhibition ([2]; 0.0045 μM, Table 9) [%] | mRNA inhibition ([2]; 0.013 μM, Table 9) [%] | mRNA inhibition ([2]; 0.04 μM, Table 9) [%] | mRNA inhibition ([2]; 0.12 μM, Table 9) [%] | mRNA inhibition ([2]; 0.4 μM, Table 9) [%] | mRNA inhibition ([2]; 1.1 μM, Table 9) [%] | mRNA inhibition ([2]; 3.3 μM, Table 9) [%] | mRNA inhibition ([2]; 10 μM, Table 9) [%] | IC50 [2, 4] [nM] | Mean hCD39 mRNA expression (relative to untreated cells set as 1) [3] | Relative hCD39 mRNA expression (compared to non-treated cells) [3] | Residual hCD39 mRNA expression relative to untreated cells (set as 1) [1] | mRNA inhibition ([2]; 4 nM, Table 12) [%] | mRNA inhibition ([2]; 12 nM, Table 12) [%] | mRNA inhibition ([2]; 40 nM, Table 12) [%] | mRNA inhibition ([2]; 110 nM, Table 12) [%] | mRNA inhibition ([2]; 330 nM, Table 12) [%] | Residual hCD39 mRNA expression relative to untreated cells (set as 1) [3] | also measured
1 | +T*+A*+T*G*G*T*A*C*A*G*T*+T*G*+G*+T (antisense TATGGTACAGTTGGT; sugars from the 5' end l3 d8 l1 d1 l2, all phosphorothioate, methylation of C not given here) [A04020H] | 0.08 | 0.08 | 23.58 | 68.27 | 94.26 | 98.89 | 99.42 | 99.61 | 99.55 | 99.41 | 10.1 | 0.03 | 0.04 |  |  |  |  |  |  |  | 
2 | +G*G*+A*C*A*A*T*G*G*T*T*G*+C*+T*+C (antisense GGACAATGGTTGCTC; sugars from the 5' end l1 d1 l1 d9 l3, all phosphorothioate, methylation of C not given here) [A04016H] | 0.10 | 0.10 | 18.41 | 42.19 | 62.31 | 77.61 | 90.51 | 96.67 | 98.38 | 98.94 | 12.8 | 0.09 | 0.09 |  |  |  |  |  |  |  | 
3 | +G*+T*+T*T*G*T*G*T*G*A*G*A*G*C*+T*+T*+T (antisense GTTTGTGTGAGAGCTTT; sugars from the 5' end l3 d11 l3, all phosphorothioate, methylation of C not given here) [A04056H] |  |  |  |  |  |  |  |  |  |  |  |  |  | 0.01 | 13.97 | 37.12 | 69.95 | 91.83 | 97.52 | 0.09 | mRNA inhibition ([2]; 1000 nM, Table 12): 98.49%; IC50 [2, 5]: 20.2 nM
4 | +G*+G*+T*T*T*G*T*G*T*G*A*G*A*G*C*+T*+T (antisense GGTTTGTGTGAGAGCTT; sugars from the 5' end l3 d12 l2, all phosphorothioate, methylation of C not given here) [A04059H] |  |  |  |  |  |  |  |  |  |  |  |  |  | 0.01 | 0.00 | 12.94 | 72.06 | 91.84 | 97.46 | 0.09 | mRNA inhibition ([2]; 0.45 nM, Table 12): 1.21%; mRNA inhibition ([2]; 1.3 nM, Table 12): 0.00%; mRNA inhibition ([2]; 1000 nM, Table 12): 98.31%; IC50 [2, 5]: 18.3 nM
5 | +A*+C*C*C*T*G*A*G*T*T*G*T*A*A*C*+T (antisense ACCCTGAGTTGTAACT; sugars from the 5' end l2 d13 l1, all phosphorothioate, methylation of C not given here) [A04033H] | 0.10 | * |  |  |  |  |  |  |  |  |  | 0.28 | 0.14 |  |  |  |  |  |  |  | mRNA inhibition ([2]; 0.0045 μM, Table 8): 3.05%; mRNA inhibition ([2]; 0.013 μM, Table 8): −3.30%; mRNA inhibition ([2]; 0.04 μM, Table 8): 24.10%; mRNA inhibition ([2]; 0.12 μM, Table 8): 46.98%; mRNA inhibition ([2]; 0.4 μM, Table 8): 70.74%; mRNA inhibition ([2]; 1.1 μM, Table 8): 83.81%; mRNA inhibition ([2]; 3.3 μM, Table 8): 92.79%; mRNA inhibition ([2]; 10 μM, Table 8): 98.02%; IC50 [2, 6]: 119 nM
6 | +T*+G*+C*C*A*G*A*G*T*G*C*C*T*G*+A*+T*+C (antisense TGCCAGAGTGCCTGATC; sugars from the 5' end l3 d11 l3, all phosphorothioate, methylation of C not given here) [A04042H] | 0.10 | * |  |  |  |  |  |  |  |  |  | 0.37 | 0.19 | 0.09 |  |  |  |  |  | 0.00 | mRNA inhibition ([2]; 0.0045 μM, Table 8): −20.02%; mRNA inhibition ([2]; 0.013 μM, Table 8): −2.65%; mRNA inhibition ([2]; 0.04 μM, Table 8): 22.51%; mRNA inhibition ([2]; 0.12 μM, Table 8): 32.44%; mRNA inhibition ([2]; 0.4 μM, Table 8): 58.07%; mRNA inhibition ([2]; 1.1 μM, Table 8): 76.38%; mRNA inhibition ([2]; 3.3 μM, Table 8): 87.12%; mRNA inhibition ([2]; 10 μM, Table 8): 95.87%; IC50 [2, 6]: 60.9 nM
7 | +A*+G*+A*G*T*G*C*C*T*G*A*T*C*+C*+T*+T (antisense AGAGTGCCTGATCCTT; sugars from the 5' end l3 d10 l3, all phosphorothioate, methylation of C not given here) [A04051H] |  |  |  |  |  |  |  |  |  |  |  |  |  | 0.02 | 23.62 | 23.14 | 43.66 | 70.34 | 86.77 | 0.34 | mRNA inhibition ([2]; 0.45 nM, Table 12): 30.83%; mRNA inhibition ([2]; 1.3 nM, Table 12): 15.36%; mRNA inhibition ([2]; 1000 nM, Table 12): 92.82%; IC50 [2, 5]: 69 nM
8 | +G*+A*G*T*G*C*C*T*G*A*T*C*C*+T*+T (antisense GAGTGCCTGATCCTT; sugars from the 5' end l2 d11 l2, all phosphorothioate, methylation of C not given here) [A04010H] | 0.17 | 0.15 | 20.11 | 24.68 | 52.80 | 76.16 | 90.86 | 95.99 | 98.10 | 98.77 | 51.6 | 0.10 | 0.11 |  |  |  |  |  |  |  | 
9 | +G*+T*+A*A*G*C*C*C*T*G*A*T*+G*+T*+T (antisense GTAAGCCCTGATGTT; sugars from the 5' end l3 d9 l3, all phosphorothioate, methylation of C not given here) [A04019H] | 0.08 | 0.08 | 22.53 | 49.52 | 62.95 | 82.63 | 93.96 | 97.94 | 99.04 | 99.00 | 11.6 | 0.03 | 0.03 | 0.01 |  |  |  |  |  | 0.00 | mRNA inhibition ([2]; 0.0045 μM, Table 8): −11.65%; mRNA inhibition ([2]; 0.013 μM, Table 8): 8.19%; mRNA inhibition ([2]; 0.04 μM, Table 8): 38.76%; mRNA inhibition ([2]; 0.12 μM, Table 8): 69.42%; mRNA inhibition ([2]; 0.4 μM, Table 8): 88.83%; mRNA inhibition ([2]; 1.1 μM, Table 8): 95.46%; mRNA inhibition ([2]; 3.3 μM, Table 8): 97.89%; mRNA inhibition ([2]; 10 μM, Table 8): 98.39%; IC50 [2, 6]: 40 nM
